The text below walks through data of patent publication US20240252677A1, “ONE-COMPONENT DELIVERY SYSTEM FOR NUCLEIC ACIDS” (The Trustees of the University of Pennsylvania, priority 2021, published 2024).

A short description of data set [1]: pKa measurements of individual IAJD molecules by titration. Format: physicochemical. As to conditions: ethanol saturated with NaCl, titrated with 0.1 M aqueous HCl; Table 15; individual IAJD molecule, titration. Summed up:
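Compound dissolved at 1.5 mg/mL in NaCl-saturated ethanol and titrated with 0.1 M HCl in 7.5 μL steps, pH read by electrode after each addition. pKa taken from the half-equivalence point.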

A further data set relates to HEK293T cells. Nature of the data set: In vitro Luc-mRNA transfection, luciferase luminescence expression in HEK293T cells. Format: cell-based, human. Also on record: unit not given here. The note with it: HEK293T cells, Luc-mRNA 125 ng/well, n=3. Summed up: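 HEK293T cells were transfected with nucleoside-modified firefly luciferase mRNA at 125 ng/well delivered in the test particles. TransIT and MC3-based LNPs at equal mRNA dose served as comparators. After 24 h (18-20 h in some runs) at 37° C the cells were lysed, and luciferase luminescence was read on a luminometer, in triplicate.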

In a further data set the test system is spleen. Description: In vivo mRNA delivery, IVIS imaging of organs: spleen. Set-up: species or system mice; key to Organs with luminescence: spleen: strong: Strong meant the luminescence intensity in that organ was relatively high, compared to other organs; weak: Weak meant the luminescence intensity in that organ was relatively low, compared to other organs. As to conditions: for Organs with luminescence: spleen (weak/strong): Table 14; for Organs with luminescence: spleen: Table 17, mice, IVIS, 4-6 h after injection, intensity relative to other organs. The protocol: (§1) The exposure time was 1 min.
(§2) Tissue luminescence signal was measured on the IVIS imaging system using an exposure time of 60 seconds using medium binning (binning=8) to ensure that the signal obtained was within operative detection range. […] Bioluminescence imaging was performed as described above.
(§3) Tissue luminescence signal was measured on the IVIS imaging system using a certain exposure time (60, 30 or 15 seconds) and medium binning (binning=8) to ensure that the signal obtained was within operative detection range.

A further data set relates to lung. Description: In vivo mRNA delivery, IVIS imaging of organs: lung. Set-up: species or system mice; key to Organs with luminescence: lung: strong: Strong meant the luminescence intensity in that organ was relatively high, compared to other organs; weak: Weak meant the luminescence intensity in that organ was relatively low, compared to other organs. The note with it: for Organs with luminescence: lung (weak/strong): Table 14; for Organs with luminescence: lung: Table 17, mice, IVIS, 4-6 h after injection, intensity relative to other organs. Here is the method:
as §1, §2, §3

Turning to `CCCCCCCCCCCCCCOc1cc(CNC(=O)CCCN2CCN(C)CC2)cc(OCCCCCCCCCCCCCC)c1` [IAJD 108, N-(3,5-bis(tetradecyloxy)benzyl)-4-(4-methylpiperazin-1-yl)butanamide], the pKa in data set [1] turned out to be 6.59. The Luminescence in the data set on HEK293T cells is 136,424. Besides, in the data set with spleen (imaging 6 h after injection), the “Organs with luminescence: spleen (weak/strong)” value (“Organs … spleen (weak/strong)” below) is listed as “spleen (weak)”. The “Organs with luminescence: lung (weak/strong)” value (“Organs … lung (weak/strong)” for short) with lung (imaging 6 h after injection) is reported as “Lung (strong),”.

Regarding `CCCCCCCCCCOc1cc(COC(=O)CCCN2CCN(CCO)CC2)cc(OCCCCCCCCCC)c1` [IAJD 91, 3,5-Bis(decyloxy)benzyl 4-(4-(2-hydroxyethyl)piperazin-1-yl)butanoate], in data set [1], the pKa turned out to be 6.48. The Luminescence with HEK293T cells is reported as 65,255. In addition, the “Organs … spleen (weak/strong)” value with spleen (imaging 6 h after injection) is given as “spleen (strong)”. The “Organs … lung (weak/strong)” value in the data set on lung (imaging 6 h after injection) is recorded as “Lung (weak),”.

`CCCCCCCCCCCCCCCCOc1cc(COC(=O)CCCN2CCN(C)CC2)cc(OCCCCCCCCCCC)c1` [IAJD 86, 3-(Hexadecyloxy)-5-(undecyloxy)benzyl 4-(4-methylpiperazin-1-yl)butanoate] had a pKa in data set [1] of 6.24. Moreover, in the data set on HEK293T cells, the Luminescence is reported as 47,066. In addition, the “Organs … spleen (weak/strong)” value with spleen (imaging 5 h after injection) was “spleen (weak)”. The “Organs with luminescence: spleen” value in the data set on spleen is recorded as “spleen (weak)”. For the same compound, the “Organs … lung (weak/strong)” value in the data set with lung (imaging 5 h after injection) is given as “Lung (weak),”. Further, in the data set with lung, the “Organs with luminescence: lung” value is on record as “Lung (weak),”.

As to `CCCCCCCCCCCCCCOc1cc(COC(=O)CCCN2CCN(C)CC2)cc(OCCCCCCCCCCC)c1` [IAJD 105, 3-(Tetradecyloxy)-5-(undecyloxy)benzyl 4-(4-methylpiperazin-1-yl)butanoate], the pKa in data set [1] is 6.5. Further, the Luminescence in the data set with HEK293T cells stood at 85. In addition, the “Organs … spleen (weak/strong)” value in the data set with spleen (imaging 6 h after injection) is given as “spleen (weak)”. Further, the “Organs with luminescence: spleen” value in the data set on spleen is “spleen (weak)”. Besides, the “Organs … lung (weak/strong)” value in the data set with lung (imaging 6 h after injection) is recorded as “Lung (weak),”. Further, the “Organs with luminescence: lung” value in the data set on lung is given as “Lung (weak),”.

`CCCCCCCCCCCCOc1cc(COC(=O)CCN2CCN(C)CC2)cc(OCCCCCCCCCCCC)c1` [IAJD 84, 3,5-Bis(dodecyloxy)benzyl 3-(4-methylpiperazin-1-yl)propanoate] gave a pKa in data set [1] of 6.19. Besides, the Luminescence in the data set on HEK293T cells came out at 205. Also, the “Organs … spleen (weak/strong)” value with spleen (imaging 5 h after injection) was “spleen (strong)”. For the same compound, in the data set on lung (imaging 5 h after injection), the “Organs … lung (weak/strong)” value is on record as “Lung (weak),”.

In the case of `CCCCCCCCCCCCCCCCCCOc1cc(COC(=O)CCCN2CCN(C)CC2)cc(OCCCCCCCCCCC)c1` [IAJD 81, 3-(Octadecyloxy)-5-(undecyloxy)benzyl 4-(4-methylpiperazin-1-yl)butanoate], the pKa in data set [1] is 6.19. In the data set on HEK293T cells, the Luminescence is on record as 206,161. In the data set on spleen (imaging 6 h after injection), the “Organs … spleen (weak/strong)” value is “spleen (weak)”. In addition, in the data set with spleen, the “Organs with luminescence: spleen” value was “spleen (weak)”. Moreover, the “Organs … lung (weak/strong)” value in the data set with lung (imaging 6 h after injection) is reported as “Lung (weak),”. In addition, the “Organs with luminescence: lung” value in the data set on lung is given as “Lung (weak),”.

In turn, `CCCCC(CC)COc1ccc(COC(=O)CCCN2CCN(C)CC2)cc1OCC(CC)CCCC` (stereo not drawn) [IAJD 103, 3,4-Bis((2-ethylhexyl)oxy)benzyl 4-(4-methylpiperazin-1-yl)butanoate] showed a pKa in data set [1] of 6.23. Besides, the Luminescence in the data set with HEK293T cells was 19. For the same compound, in the data set on spleen (imaging 6 h after injection), the “Organs … spleen (weak/strong)” value is given as “spleen (weak)”. Further, the “Organs … lung (weak/strong)” value with lung (imaging 6 h after injection) is on record as “Lung (strong),”.

`CCCCCCCCCCCCCCCCCCOc1cc(COC(=O)CCCN2CCN(C)CC2)cc(OCCCCCCCCCCCC)c1` [IAJD 107, 3-(Dodecyloxy)-5-(octadecyloxy)benzyl 4-(4-methylpiperazin-1-yl)butanoate] yielded a pKa in data set [1] of 6.42. Also, in the data set with HEK293T cells, the Luminescence is listed as 93,745. Besides, the “Organs … spleen (weak/strong)” value in the data set on spleen (imaging 6 h after injection) is listed as “spleen (strong)”. Besides, the “Organs with luminescence: spleen” value in the data set on spleen is listed as “spleen (strong)”. Also, in the data set on lung (imaging 6 h after injection), the “Organs … lung (weak/strong)” value is reported as “Lung (weak),”. The “Organs with luminescence: lung” value in the data set on lung is reported as “Lung (weak),”.

In turn, `CCCCC(CC)COc1cc(COC(=O)CCCN2CCN(C)CC2)cc(OCC(CC)CCCC)c1` (stereo not drawn) [IAJD 76, 3,5-Bis((2-ethylhexyl)oxy)benzyl 4-(4-methylpiperazin-1-yl)butanoate] had a pKa in data set [1] of 6.28. Moreover, in the data set on HEK293T cells, the Luminescence is on record as 17. Moreover, in the data set with spleen (imaging 5 h after injection), the “Organs … spleen (weak/strong)” value is given as “spleen (strong)”. In the data set with lung (imaging 5 h after injection), the “Organs … lung (weak/strong)” value is listed as “Lung (weak),”.

On to `CCCCC(CC)COc1cc(COC(=O)CCCN2CCN(C)CC2)cc(OCC(CC)CCCC)c1OCC(CC)CCCC` (stereo not drawn) [IAJD 96, 3,4,5-Tris((2-ethylhexyl)oxy)benzyl 4-(4-methylpiperazin-1-yl)butanoate], for which, in data set [1], the pKa came out at 6.32. Besides, the Luminescence in the data set on HEK293T cells is on record as 22,799. Besides, in the data set on spleen (imaging 5 h after injection), the “Organs … spleen (weak/strong)” value is listed as “spleen (strong)”. Besides, in the data set with lung (imaging 5 h after injection), the “Organs … lung (weak/strong)” value is “Lung (weak),”.

`CCCCCCCCCCCCCCCCOc1cc(COC(=O)CCCN2CCN(C)CC2)cc(OCCCCCCCCCCCC)c1` [IAJD 106, 3-(Dodecyloxy)-5-(hexadecyloxy)benzyl 4-(4-methylpiperazin-1-yl)butanoate] showed a pKa in data set [1] of 6.38. Also, the Luminescence in the data set on HEK293T cells was 309. The “Organs … spleen (weak/strong)” value with spleen (imaging 6 h after injection) was “spleen (strong)”. For the same compound, in the data set with spleen, the “Organs with luminescence: spleen” value is “spleen (strong)”. In addition, the “Organs … lung (weak/strong)” value in the data set with lung (imaging 6 h after injection) was “Lung (weak),”. Besides, the “Organs with luminescence: lung” value in the data set with lung is “Lung (weak),”.

As for `CCCCCCCCCCCCCCCCOc1cc(COC(=O)CCCN2CCN(C)CC2)cc(OCCCCCCCCCCCCCCCC)c1` [IAJD 75, 3,5-Bis(hexadecyloxy)benzyl 4-(4-methylpiperazin-1-yl)butanoate], in data set [1], the pKa is 6.22. In the data set with HEK293T cells, the Luminescence is 68,572. Also, in the data set with spleen (imaging 5 h after injection), the “Organs … spleen (weak/strong)” value was “spleen (strong)”. Besides, the “Organs … lung (weak/strong)” value in the data set on lung (imaging 5 h after injection) is reported as “Lung (weak),”.

Consider `CCCCCCCCCCCCOc1ccc(COC(=O)CCCN2CCN(C)CC2)cc1OCCCCCCCCCCCC` [IAJD 78, 3,4-Bis(dodecyloxy)benzyl 4-(4-methylpiperazin-1-yl)butanoate], for which the pKa in data set [1] is 6.46. Also, in the data set with HEK293T cells, the Luminescence is 8,688. Also, in the data set with spleen (imaging 5 h after injection), the “Organs … spleen (weak/strong)” value was “spleen (weak)”. Also, the “Organs … lung (weak/strong)” value in the data set with lung (imaging 5 h after injection) is recorded as “Lung (strong),”.

Take `CCCCCCCCCOc1cc(COC(=O)CCCN2CCN(C)CC2)cc(OCCCCCCCCC)c1` [IAJD 77, 3,5-Bis(nonyloxy)benzyl 4-(4-methylpiperazin-1-yl)butanoate]: the pKa in data set [1] is 6.4. Moreover, the Luminescence with HEK293T cells was 129. The “Organs … spleen (weak/strong)” value in the data set on spleen (imaging 5 h after injection) is on record as “spleen (strong)”. For the same compound, in the data set with lung (imaging 5 h after injection), the “Organs … lung (weak/strong)” value is given as “Lung (weak),”.

In data set [1], `CCCCCCCCOc1cc(COC(=O)CCCN2CCN(CCO)CC2)cc(OCCCCCCCC)c1` [IAJD 89] had a pKa of 6.45. Moreover, the Luminescence with HEK293T cells came to 55. Also, in the data set with spleen (imaging 6 h after injection), the “Organs … spleen (weak/strong)” value is on record as “spleen (strong)”. In addition, in the data set on lung (imaging 6 h after injection), the “Organs … lung (weak/strong)” value was “Lung (weak),”.

`CCCCCCCCCCCCOCC(COCCCCCCCCCCCC)(COCCCCCCCCCCCC)COC(=O)CCCN1CCN(CCO)CC1` [IAJD 83, 3-(Dodecyloxy)-2,2-bis((dodecyloxy)methyl)propyl 4-(4-(2-hydroxyethyl)piperazin-1-yl)butanoate] had a pKa in data set [1] of 6.3. Moreover, the Luminescence with HEK293T cells is on record as 68,691. The “Organs … spleen (weak/strong)” value with spleen (imaging 5 h after injection) is given as “spleen (strong)”. Further, the “Organs … lung (weak/strong)” value in the data set on lung (imaging 5 h after injection) is “Lung (weak),”.

Regarding `CCCCCCCCCCCCCCCCCCOc1cc(COC(=O)CCCN2CCN(C)CC2)cc(OCCCCCCCCCCCCCCCCCC)c1` [IAJD 98, 3,5-Bis(octadecyloxy)benzyl 4-(4-methylpiperazin-1-yl)butanoate], the pKa in data set [1] was 6.25. Further, in the data set on HEK293T cells, the Luminescence is reported as 22,209. In the data set with spleen (imaging 6 h after injection), the “Organs … spleen (weak/strong)” value is “spleen (strong)”. Also, the “Organs … lung (weak/strong)” value with lung (imaging 6 h after injection) is “Lung (weak),”.

`CCCCCCCCCCCCOc1cc(COC(=O)CCCN2CCN(CCO)CC2)cc(OCCCCCCCCCCCC)c1` [IAJD 71, 3,5-Bis(dodecyloxy)benzyl 4-(4-(2-hydroxyethyl)piperazin-1-yl)butanoate] yielded a pKa in data set [1] of 6.38. Also, the Luminescence with HEK293T cells is 473,548. For the same compound, the “Organs … spleen (weak/strong)” value in the data set on spleen (imaging 5 h after injection) is given as “spleen (strong)”. Further, the “Organs with luminescence: spleen” value in the data set with spleen was “spleen (strong)”. In addition, the “Organs … lung (weak/strong)” value in the data set with lung (imaging 5 h after injection) was “Lung (weak),”. Further, the “Organs with luminescence: lung” value in the data set with lung is “Lung (weak),”.

What is called pKa is the pH at which an ionisable group is half protonated.
